Read-outs that look alike come from different tables or passages of the source.
Columns and labels:
[1] = test system: microfilaria of Dirofilaria immitis; experiment: Method C: microfilaria of Dirofilaria immitis motility screen; type: cell-based; conditions: read-out: inhibition of the microfilaria's motility
Haemonchus contortus = experiment: Method A: Haemonchus contortus L1 larval development/motility screen in microtitre plate; type: cell-based; conditions: 96 h, read-out: motility inhibition

SMILES	inhibition at 10 µM ([1]; 24 h) [%]	inhibition at 5 ppm ([1]; 24 h) [%]	further results
CC(C)(C)NC(=O)N1CCN(c2cccc(O[C@H]3CC[C@H](Nc4ccc([N+](=O)[O-])c(C(F)(F)F)c4)CC3)n2)CC1 [Compound 150]	≥ 90	–	–
CCN1CCN(c2cc(O[C@H]3CC[C@H](Nc4ccc([N+](=O)[O-])c(C(F)(F)F)c4)CC3)ccn2)CC1 [Compound 160]	≥ 90	–	–
CCOC(=O)N1CCN(c2cccc(O[C@H]3CC[C@H](Nc4ccc([N+](=O)[O-])c(C(F)(F)F)c4)CC3)n2)CC1 [Compound 110]	–	≥ 90	–
O=[N+]([O-])c1ccc(N[C@H]2CC[C@H](Oc3cncc(N4CCN(Cc5nc6cc(C(F)(F)F)ccc6s5)CC4)c3)CC2)cc1C(F)(F)F [Compound 62]	–	–	inhibition at 5 µM (Haemonchus contortus): ≥ 90%
O=C(NC1CCCC1)N1CCN(c2cccc(O[C@H]3CC[C@H](Nc4ccc([N+](=O)[O-])c(C(F)(F)F)c4)CC3)n2)CC1 [Compound 147]	≥ 90	–	–
O=[N+]([O-])c1ccc(N[C@H]2CC[C@H](Oc3cncc(N4CCN(C(=S)Nc5ccc(F)cc5)CC4)c3)CC2)cc1C(F)(F)F [Compound 92]	–	≥ 90	–
O=C(CC1CCCC1)N1CCN(c2cncc(O[C@H]3CC[C@H](Nc4ccc([N+](=O)[O-])c(C(F)(F)F)c4)CC3)c2)CC1 [Compound 20]	–	–	inhibition at 5 µM (Haemonchus contortus): ≥ 90%
CCCOC(=O)N1CCN(c2cc(O[C@H]3CC[C@H](Nc4ccc(S(=O)(=O)C(F)(F)F)cc4)CC3)ccn2)CC1 [Compound 187]	≥ 90	–	–
CC(C)(C)OC(=O)N1CCN(c2ncccc2O[C@H]2CC[C@H](Nc3ccc([N+](=O)[O-])c(C(F)(F)F)c3)CC2)CC1 [Compound 121]	–	≥ 90	–
CNC(=S)N1CCN(c2cccc(O[C@H]3CC[C@H](Nc4ccc([N+](=O)[O-])c(C(F)(F)F)c4)CC3)n2)CC1 [Compound 130]	–	≥ 90	–
CCCNC(=S)N1CCN(c2cncc(O[C@H]3CC[C@H](Nc4ccc([N+](=O)[O-])c(C(F)(F)F)c4)CC3)c2)CC1 [Compound 119]	–	≥ 90	–
O=[N+]([O-])c1ccc(N[C@H]2CC[C@H](Oc3cccc(N4CCN(CC5CCCC5)CC4)n3)CC2)cc1C(F)(F)F [Compound 142]	≥ 90	–	–
O=C(Nc1ccc(C(F)(F)F)cc1)N1CCN(c2cccc(O[C@H]3CC[C@H](Nc4ccc([N+](=O)[O-])c(C(F)(F)F)c4)CC3)n2)CC1 [Compound 139]	≥ 90	–	–
CC(C)(C)NC(=S)N1CCN(c2ccnc(O[C@H]3CC[C@H](Nc4ccc([N+](=O)[O-])c(C(F)(F)F)c4)CC3)c2)CC1 [Compound 93]	–	≥ 90	–
CCCN1CCN(c2cccc(O[C@H]3CC[C@H](Nc4ccc([N+](=O)[O-])c(C(F)(F)F)c4)CC3)n2)CC1 [Compound 158]	≥ 90	–	–
CNC(=S)N1CCN(c2ccnc(O[C@H]3CC[C@H](Nc4ccc([N+](=O)[O-])c(C(F)(F)F)c4)CC3)c2)CC1 [Compound 129]	–	≥ 90	–
CN(c1ccc([N+](=O)[O-])c(C(F)(F)F)c1)[C@H]1CC[C@H](Oc2ccnc(N3CCN(C(=O)NC(C)(C)C)CC3)c2)CC1 [Compound 132]	–	–	inhibition at 10 µM ([1]; 10 μM, 24 hours): ≥ 90%
CCCCN1CCN(c2cccc(O[C@H]3CC[C@H](Nc4ccc([N+](=O)[O-])c(C(F)(F)F)c4)CC3)n2)CC1 [Compound 157]	≥ 90	–	–
O=C(Cc1cc(C(F)(F)F)cc(C(F)(F)F)c1)N1CCN(c2cc(O[C@H]3CC[C@H](Nc4ccc([N+](=O)[O-])c(C(F)(F)F)c4)CC3)ccn2)CC1 [Compound 137]	≥ 90	–	–
CCCNC(=S)N1CCN(c2cccc(O[C@H]3CC[C@H](Nc4ccc([N+](=O)[O-])c(C(F)(F)F)c4)CC3)n2)CC1 [Compound 120]	–	≥ 90	–

SMILES	inhibition at 10 µM ([1]; 24 h) [%]	inhibition at 5 ppm ([1]; 24 h) [%]	further results
CCC(=O)N1CCN(c2cccc(O[C@H]3CC[C@H](Nc4ccc([N+](=O)[O-])c(C(F)(F)F)c4)CC3)n2)CC1 [Compound 115]	–	≥ 90	–
CCCNC(=S)N1CCN(c2ccnc(O[C@H]3CC[C@H](Nc4ccc([N+](=O)[O-])c(C(F)(F)F)c4)CC3)c2)CC1 [Compound 99]	–	≥ 90	inhibition at 1 ppm ([1]; 24 h): ≥ 90%
O=C(Nc1ccc(F)cc1)N1CCN(c2ccnc(O[C@H]3CC[C@H](Nc4ccc([N+](=O)[O-])c(C(F)(F)F)c4)CC3)c2)CC1 [Compound 112]	≥ 90	–	–
CCNC(=S)N1CCN(c2cncc(O[C@H]3CC[C@H](Nc4ccc([N+](=O)[O-])c(C(F)(F)F)c4)CC3)c2)CC1 [Compound 124]	–	≥ 90	–
O=S(=O)(c1ccc(N[C@H]2CC[C@H](Oc3cncc(N4CCN(c5ccc(C(F)(F)F)cn5)CC4)c3)CC2)cc1)C(F)(F)F [Compound 195]	≥ 90	–	–
CC(C)(C)NC(=S)N1CCN(c2cncc(O[C@H]3CC[C@H](Nc4ccc([N+](=O)[O-])c(C(F)(F)F)c4)CC3)c2)CC1 [Compound 91]	–	≥ 90	–
CCCNC(=O)N1CCN(c2cccc(O[C@H]3CC[C@H](Nc4ccc([N+](=O)[O-])c(C(F)(F)F)c4)CC3)n2)CC1 [Compound 127, N-propyl-4-(6-[[4-[[4-nitro-3-(trifluoromethyl)phenyl]amino]cyclohexyl]oxy]pyridin-2-yl)piperazine-1-carboxamide]	–	–	inhibition at 5 ppm ([1]; 5 ppm, 24 hours): ≥ 90%
CNC(=O)N1CCN(c2ccnc(O[C@H]3CC[C@H](Nc4ccc([N+](=O)[O-])c(C(F)(F)F)c4)CC3)c2)CC1 [Compound 155]	≥ 90	–	–
CCCCC(=O)N1CCN(c2cccc(O[C@H]3CC[C@H](Nc4ccc([N+](=O)[O-])c(C(F)(F)F)c4)CC3)n2)CC1 [Compound 136]	≥ 90	–	–
O=[N+]([O-])c1ccc(N[C@H]2CC[C@H](Oc3ccnc(N4CCN(CC(F)(F)F)CC4)c3)CC2)cc1C(F)(F)F [Compound 108]	–	≥ 90	–
CCNC(=O)N1CCN(c2cccc(O[C@H]3CC[C@H](Nc4ccc([N+](=O)[O-])c(C(F)(F)F)c4)CC3)n2)CC1 [Compound 131]	–	≥ 90	–
CNC(=O)N1CCN(c2cncc(O[C@H]3CC[C@H](Nc4ccc([N+](=O)[O-])c(C(F)(F)F)c4)CC3)c2)CC1 [Compound 154]	≥ 90	–	–
O=[N+]([O-])c1ccc(N[C@H]2CC[C@H](Oc3ccnc(N4CC5CN(c6ccc(C(F)(F)F)cn6)CC5C4)c3)CC2)cc1C(F)(F)F (stereo partly drawn) [Compound 140]	≥ 90	–	–
CNC(=S)N1CCN(c2cncc(O[C@H]3CC[C@H](Nc4ccc([N+](=O)[O-])c(C(F)(F)F)c4)CC3)c2)CC1 [Compound 128]	–	≥ 90	–
CCNC(=S)N1CCN(c2cccc(O[C@H]3CC[C@H](Nc4ccc([N+](=O)[O-])c(C(F)(F)F)c4)CC3)n2)CC1 [Compound 125]	–	≥ 90	–
O=[N+]([O-])c1ccc(N[C@H]2CC[C@H](Oc3ccnc(N4CCN(Cc5ccc(C(F)(F)F)cc5)CC4)c3)CC2)cc1C(F)(F)F [Compound 56]	–	≥ 90	inhibition at 1 ppm ([1]; 24 h): ≥ 90%
CC(C)(C)OC(=O)N1CCN(c2cc(O[C@H]3CC[C@H](Nc4ccc(S(=O)(=O)C(F)(F)F)cc4)CC3)ccn2)CC1 [Compound 186]	≥ 90	–	–
CC(C)(C)OC(=O)N1CCN(c2cc(O[C@H]3CC[C@H](Nc4ccc(C#N)c(C(F)(F)F)c4)CC3)ccn2)CC1 [Compound 151]	≥ 90	–	–
CC(C)(C)NC(=S)N1CCN(c2cccc(O[C@H]3CC[C@H](Nc4ccc([N+](=O)[O-])c(C(F)(F)F)c4)CC3)n2)CC1 [Compound 116]	–	≥ 90	–
O=C(Nc1ccc(C(F)(F)F)cc1)N1CCN(c2ccnc(O[C@H]3CC[C@H](Nc4ccc([N+](=O)[O-])c(C(F)(F)F)c4)CC3)c2)CC1 [Compound 138]	≥ 90	–	–
